The text below walks through data of patent US7358278B2, “Cellular phosphorylation potential enhancing compositions preparation and use thereof” (priority 1994, dated 2008).

The structures appear in SMILES notation. Marks after values point to notes of the source that are not given here.

For experiment [1], the system named is rat cerebral cortical astrocytes. The class given is cell-based. To be noted: FIG. 11. As for the experimental part:
Astrocytes were treated with increasing amounts of the ER calcium pump inhibitor thapsigargin for 24 hrs in either Krebs buffer or MEM. Cell viability was determined using the MTT assay.
FIG. 10. Exogenous pyruvate provides protection to astrocytes from calcium overload in Krebs Buffer.
For these experiments astrocytes were cultured in either MEM or in Krebs alone or in Krebs with different aminoacid additions grouped as in FIG. 8. Aminoacids were used at 1 mM each. Following 30 min incubation with aminoacids, 15 μM thapsigargin was added to the cultures and the astrocytes cultured for another 24 hours in the presence or absence of 10 mM cinnamate, at which point cell viability was determined using the MTT assay. Cell viability is expressed as percent of that seen with MEM without thapsigargin addition. At the 15 μM thapsigargin dose, about 80% viability is seen in MEM and this is reduced to 20% by the addition of pyruvate. […]
The combination of pyruvate, nicotinamide, and creatine has synergistic benefits for cellular energy metabolism and is also cytoprotective. […] Since we had shown that pyruvate protects neurons from calcium overload induced by thapsigargin toxicity, we first determined whether endogenously produced or exogenously supplied pyruvate could protect astrocytes from calcium overload induced by thapsigargin as shown previously for GT1-7 neurons. […]

Experiment [2] concerns rat cortical neurons. Briefly: Glutamate-induced delayed toxicity, neuroprotection, MTT assay. To be noted: FIG. 5b. In general terms: Tetrazolium assays rely on reduction of a dye to a coloured formazan, in cell work by metabolically active cells.
Protocol: Cell death (glutamate toxicity) was measured using the MTT assay.
The glutamate exposure involved treatment wit 100 micromoolar glutamate for 30 min followed by its removal. […] All data are means +1-SEM from at least three different experiments.
To study glutamate neurotoxicity, we utilized primary cultures of rat cortical neurons and used a glutamate pulse model which produces delayed neuronal death in 24 hrs. All studies were performed in Locke's medium prepared in our laboratory to avoid contribution from the vitamins and additives typically found in many commercial media.
To determine whether the protective effects of pyruvate against glutamate toxicity were due to its effect on cell metabolism, we utilized 4-hydroxycinnamate, a compound that blocks the transporter by which pyruvate enters mitochondria. While pyruvate can exert its antioxidant effects in any compartment, its utilization in energy metabolism requires its entry into mitochondria.
In experiment [3] the test system is GT1-7 cells. As to the kind of experiment: Thapsigargin (calcium overload) toxicity, neuroprotection, MTT dye reduction assay. The note with it: 20 micromolar thapsigargin, FIG. 4B.
Protocol: GT1-7 cell were subjected to treatments and assessed for nutrient neuroprotection as described in the text. All data are means +/− SEM from at least three different experiments.
To study calcium overload toxicity, we treated cells with thapsigargin, an agent that blocks the endoplastic reticulum calcium pump and markedly elevates cytoplasmic calcium levels. […] All studies were performed in Locke's medium prepared in our laboratory to avoid contribution from the vitamins and additives typically found in many commercial media. After determining the toxin treatment dose needed to produce complete toxicity, we then treated the cells dose-dependently with pyruvate, nicotinamide (nicotinamide) and creatine, either alone or in combination along with the LD95 dose of the toxins. […] For the combination experiments, all three agents are added together and the x-axis indicates the concentration of each agent in the combination.
Experiment [4] deals with GT1-7 neurons. As to the kind of experiment: Cellular ATP and phosphocreatine levels, chemiluminescent firefly luciferase assay. The class given is cell-based, rat. The note with it: 1 mM each, 1 hour incubation; for ATP (% control) / CP (% control): Locke's media; for CP (% control): phosphocreatine. As for the experimental part: (§1) While each of these agents may have additional neuroprotective properties outside of their role in energy metabolism, our major premise is that this combination will provide neuroprotection through enhancement of brain energy levels. To assess this we monitored three different bioenergetic parameters: Whole cell NADH levels, cellular ATP levels and cellular phosphocreatine levels. GT1-7 cells or cross-chopped rat cerebral cortical slices were equilibrated in oxygenated Locke's media for 1 hour. Pyruvate, nicotinamide, or creatine were than added alone or in combination at 1 mM each. Analytes were measured after another hour of incubation. NADH was measured using its specific fluorescence properties in suspended cells and the effect of each nutrient alone and in combination on GT1-7 neuronal NADH levels is shown in table 2a. Pyruvate would be expected to raise mitochondrial NADH levels through its participation in the Krebs cycle and it indeed appears to account for all of this effect in the combination. ATP and phosphocreatine were measured via a chemiluminescent assay utilizing firefly luciferase. In viable cells, phosphocretine levels most adequately reflect cellular energy supply since cells readily convert any excess ATP into phosphocreatine.

Experiment [5] relates to GT1-7 neurons. Briefly: Whole cell NADH levels by NADH fluorescence in suspended cells. Type of experiment: cell-based, rat. The note with it: 1 mM each, 1 hour incubation, Locke's media; * significant vs Locke's medium alone P<0.05. As for the experimental part: as §1
For experiment [6], the system named is rat cerebral cortical slices. As to the kind of experiment: ATP and phosphocreatine levels in cross-chopped cerebral cortical slices, firefly luciferase assay. The class given is cell-based. The note with it: 1 mM each. As for the experimental part:
as §1, with “Analytes were measured after another hour of incubation.” left out, “phosphocreatine. […] The response with the combination was larger and was maintained after 6 hours of continued incubation.” for “phosphocreatine.”

Consider `O=C(O)C=Cc1ccc(O)cc1` [4-hydroxycinnamate], for which the “effect of cinnamate on susceptibility of MEM cultured astrocytes to thapsigargin (in words)” value in experiment [1] is “more susceptible to thapsigargin toxicity”. In addition, in experiment [2], the “effect on glutamate toxicity alone (in words)” value is on record as “no significant effect on glutamate toxicity alone” and the “effect on the protection by pyruvate (in words)” value was “prevents the protective effects of pyruvate”.

With `CN(CC(=O)O)C(=N)N` [Creatine, creatine], in experiment [3], the “protection against calcium overload (in words)” value is reported as “nearly complete dose dependent protection”. In experiment [4], the “CP/ATP Ratio” value is reported as 115.2, the “ATP (% control)” value is on record as 42 + 14.2* % control and the “CP (% control)” value is 3314.3 + 920* % control. In experiment [5], the NADH fluorescence is given as 99.3 ± 2.3.

As for `NC(=O)c1cccnc1` [Nicotinamide, nicotinamide], in experiment [3], the “protection against calcium overload (in words)” value was “nearly complete dose dependent protection”. Further, in experiment [4], the “CP/ATP Ratio” value is listed as 4.3, the “ATP (% control)” value is on record as 48.6 ± 23.4 % control and the “CP (% control)” value was 133.1 + 25 % control. Moreover, the NADH fluorescence in experiment [5] was 98.8 ± 2.2.

As for `CC(=O)C(=O)O` [Pyruvate, pyruvate], in experiment [6] (1 h), the ATP % ctr came to 77.7 % ctr, the CP % ctr worked out at 233.6 % ctr and the CP/ATP Ratio turned out to be 3.1. Moreover, in experiment [6] (6 h), the ATP % ctr amounted to 143.6 % ctr, the CP % ctr came out at 150.6 % ctr and the CP/ATP Ratio came to 1. In experiment [4], the “CP/ATP Ratio” value was 6, the “ATP (% control)” value came to 103.5 ± 17.7 % control and the “CP (% control)” value stood at 551.7 ± 193.7 % control. For the same compound, the NADH fluorescence in experiment [5] is recorded as 134.64 ± 9.9*.
